Experimental findings from patent US20250099448A1, “HETEROCYCLIC COMPOUNDS” (Hoffmann-La Roche Inc., priority 2022, published 2025) are described below.

The test concerns the target T1, MAGL protein (Homo sapiens, UniProt Q99685).
T1 sequence (Q99685 1-303): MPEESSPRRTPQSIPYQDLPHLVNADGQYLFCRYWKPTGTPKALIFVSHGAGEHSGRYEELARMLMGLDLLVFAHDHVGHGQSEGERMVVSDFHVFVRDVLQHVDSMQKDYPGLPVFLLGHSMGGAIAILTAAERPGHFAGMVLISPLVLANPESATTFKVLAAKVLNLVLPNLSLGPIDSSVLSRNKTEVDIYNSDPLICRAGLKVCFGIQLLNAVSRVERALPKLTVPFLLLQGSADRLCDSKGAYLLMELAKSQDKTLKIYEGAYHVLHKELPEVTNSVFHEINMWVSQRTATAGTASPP
Put plainly: 2-AG assay: MAGL inhibitory activity by hydrolysis of 2-arachidonoylglycerol to arachidonic acid, followed by mass spectrometry. The format is biochemical. Particulars: 8 μM 2-arachidonoylglycerol, 15 min preincubation, 30 min reaction at RT, RapidFire MS readout. The gist of the method: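 Activity was measured by RapidFire SPE–triple-quad MS as the ratio of arachidonic acid to d8-arachidonic acid after 2-AG hydrolysis (8 μM substrate, 30 min, RT, acetonitrile quench). Compounds, tested from 12.5 μM down to […], were first preincubated 15 min with MAGL in TRIS/EDTA/Tween-20 buffer containing 2.5% DMSO.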

As usually defined, the IC50 is the point on the concentration scale where inhibition reaches its midpoint. A higher IC50 goes with weaker potency in that assay. As for `O=C(N1CC2(CC(c3nc(C4CC4)n[nH]3)C2)C1)N1CC2(CC(S(=O)(=O)c3cccc(OC(F)(F)F)c3)C2)C1` [compound 533], the IC50 worked out at 5.57 nM.
In the case of `Cc1nc(C(F)F)nn1-c1ccc(C2CN(C(=O)N3CC4(CC(c5nnc(C6CC6)[nH]5)C4)C3)C2)cc1` [compound 534] it was 5.42 nM.
With `N#Cc1ncc(CC2CC3(C2)CN(C(=O)N2CC4(CC(c5nnc(C6CC6)[nH]5)C4)C2)C3)cc1C(F)(F)F` [compound 535] the figure was 0.65 nM; with `O=C(N1CC2(CC(Cc3nc(C(F)(F)F)cs3)C2)C1)N1CC2(CC(c3nc(C4(O)CC4)n[nH]3)C2)C1` [compound 536], 3.93 nM.
`Cn1cnc(C#N)c1CN1CC2(C1)CN(C(=O)N1CC3(CC(c4nc(C5CC5)n[nH]4)C3)C1)C2` [compound 537] returned an IC50 of 237 nM.
With `Cn1nc(C(F)(F)F)cc1CN1CCC2(CC1)CN(C(=O)N1CC3(CC(c4nc(C5CC5)n[nH]4)C3)C1)C2` [compound 539] the figure was 9.25 nM; with `O=C(N1CC(C23CC(c4ccc(S(=O)(=O)C(F)(F)F)cc4)(C2)C3)C1)N1CC2(CC(c3nc(C4CC4)n[nH]3)C2)C1` [compound 540], 0.05 nM; with `O=C(N1CC2(CC(c3nc(C4CC4)n[nH]3)C2)C1)N1CC2(CN(Cc3ccc(=O)[nH]c3)C2)C1` [compound 541], 1110 nM.
In the case of `Cn1cc(OC2CC3(C2)CN(C(=O)N2CC4(CC(c5nc(C6CC6)n[nH]5)C4)C2)C3)cn1` [compound 542] it was 81.9 nM.
`O=C(N1CC2(CC(c3nc(C4CC4)n[nH]3)C2)C1)N1CC2(CC[C@@H](Cc3cccc(S(=O)(=O)C(F)(F)F)c3)C2)C1` [compound 543] yielded an IC50 of 0.02 nM.
In the case of `O=C(N1CC2(CCN(Cc3cc(C(F)(F)F)on3)CC2)C1)N1CC2(CC(c3nc(C4CC4)n[nH]3)C2)C1` [compound 544] it was 8.72 nM; in that of `O=C(N1CC2(CC(Cc3cncc(C(F)(F)F)c3)C2)C1)N1CC2(CC(c3nc(C4CC(F)(F)C4)n[nH]3)C2)C1` [compound 545], 46.9 nM; in that of `O=C(N1CC2(CC(c3nc(C4CC4)n[nH]3)C2)C1)N1CC2(CN(Cc3nnn(CC(F)(F)F)n3)C2)C1` [compound 546], 140 nM.
In the case of `N#Cc1cc(CC2CC3(C2)CN(C(=O)N2CC4(CC(c5nc(C6CC(F)(F)C6)n[nH]5)C4)C2)C3)ccc1C(F)(F)F` [compound 547] it was 5.86 nM; in that of `O=C(N1CC2(CC(c3nc(C4CC4)n[nH]3)C2)C1)N1CC2(CCN(Cc3cccc(S(=O)(=O)C(F)(F)F)c3)C2)C1` [compound 549], 0.66 nM.
As to `O=C(N1CC2(CCC(S(=O)(=O)c3ccc(C(F)(F)F)cc3)CC2)C1)N1CC2(CC(c3nc(C4(O)CC4)n[nH]3)C2)C1` [compound 550], the IC50 was 9.81 nM.
As to `O=C(N1CC(C23CC(c4ccc(OC(F)(F)F)cc4)(C2)C3)C1)N1CC2(CC(c3nc(C4(O)CC4)n[nH]3)C2)C1` [compound 551], the IC50 amounted to 0.18 nM.
Molecule `O=C(N1CC(C23CC(Oc4cnc(C(F)(F)F)cn4)(C2)C3)C1)N1CC2(CC(c3nc(C4(O)CC4)n[nH]3)C2)C1` [compound 552] displayed an IC50 of 26.2 nM.
In the case of `CCn1nc(C(F)(F)F)cc1CN1CC2(C1)CN(C(=O)N1CC3(CC(c4nc(C5CC5)n[nH]4)C3)C1)C2` [compound 553] it was 4.55 nM.
Molecule `O=C(N1CC2(CC(c3nc(C4CC4)n[nH]3)C2)C1)N1CC2(CN(Cc3ccc(S(=O)(=O)C(F)(F)F)cc3F)C2)C1` [compound 554] had an IC50 of 0.56 nM.
`N=S(=O)(c1ccc(CC2CC3(C2)CN(C(=O)N2CC4(CC(c5nc(C6(O)CC6)n[nH]5)C4)C2)C3)cc1)C(F)(F)F` (stereo not drawn) [compound 555] returned an IC50 of 0.34 nM.
Molecule `N#Cc1cc(C(F)(F)F)ccc1CC1CC2(C1)CN(C(=O)N1CC3(CC(c4nnc(C5CC5)[nH]4)C3)C1)C2` [compound 556] returned an IC50 of 0.45 nM.
`O=C(N1CC(C23CC(c4nnc(C5(C(F)(F)F)CC5)s4)(C2)C3)C1)N1CC2(CC(c3nc(C4CC4)n[nH]3)C2)C1` [compound 557] registered an IC50 of 12.4 nM.
In the case of `N=S(=O)(c1ccc(CC2CC3(C2)CN(C(=O)N2CC4(CC(c5nc(C6(O)CC6)n[nH]5)C4)C2)C3)cc1)C(F)(F)F` (stereo not drawn) [compound 558] it was 0.6 nM; in that of `O=C(N1CC2(CC(Cc3cncc(S(=O)(=O)C(F)(F)F)c3)C2)C1)N1CC2(CC(c3nc(C4(O)CC4)n[nH]3)C2)C1` [compound 560], 1.25 nM; in that of `O=C(N1CC2(CC(c3nc(C4CC(F)(F)C4)n[nH]3)C2)C1)N1CC2(CN(Cc3cc(C(F)(F)F)ns3)C2)C1` [compound 561], 1450 nM.
In the case of `CS(=O)(=O)c1cc(Cl)ccc1C12CC(C3CN(C(=O)N4CC5(CC(c6nnc(C7CC7)[nH]6)C5)C4)C3)(C1)C2` [compound 562] it was 0.2 nM; in that of `O=C(N1CC(c2ccc(C3(C(F)(F)F)CC3)cc2)C1)N1CC2(CC(c3nc(C4CC(F)(F)C4)n[nH]3)C2)C1` [compound 563], 12.7 nM.
With `N=S(=O)(c1ccc(C2CN(C(=O)N3CC4(CC(c5nc(C6(F)CC6)n[nH]5)C4)C3)C2)cc1)C(F)(F)F` (stereo not drawn) [compound 564] the figure was 0.86 nM; with `O=C(N1CC2(CC(Cc3cnc(C(F)(F)F)nc3)C2)C1)N1CC2(CC(c3nc(C4(F)CC4)n[nH]3)C2)C1` [compound 565], 1.04 nM; with `O=C(N1CC2(CC(Cc3ccc(OC(F)(F)F)nc3)C2)C1)N1CC2(CC(c3nc(C4CC(F)(F)C4)n[nH]3)C2)C1` [compound 566], 14.7 nM.
Take `O=C(N1CC2(CC(c3nc(C4CC4)n[nH]3)C2)C1)N1CC2(CN(Cc3cnn(CC(F)(F)F)c3)C2)C1` [compound 568]: the IC50 came out at 408 nM.
With `N#Cc1ccc(CC2CC3(C2)CN(C(=O)N2CC4(CC(c5nc(C6(F)CC6)n[nH]5)C4)C2)C3)cc1C(F)(F)F` [compound 569] the figure was 0.09 nM.
With `O=C(N1CC(C23CC(Cc4ccc(C(F)(F)F)nc4)(C2)C3)C1)N1CC2(CC(c3nc(C4(O)CC4)n[nH]3)C2)C1` [compound 570] the figure was 35.8 nM.
For `O=C(N1CC2(CC(Cc3cn(CC(F)(F)F)nc3C(F)(F)F)C2)C1)N1CC2(CC(c3nc(C4CC4)n[nH]3)C2)C1` [compound 571], half-maximal inhibition (IC50) required 0.55 nM.
`O=C(N1CC2(CC(c3nc(C4CC4)n[nH]3)C2)C1)N1CC2(CN(Cc3cccn(CC(F)(F)F)c3=O)C2)C1` [compound 572] had a 50% inhibitory concentration (IC50) of 184 nM.
In the case of `O=C(N1CC(C23CC(c4nnc(C5(C(F)(F)F)CC5)o4)(C2)C3)C1)N1CC2(CC(c3nc(C4(O)CC4)n[nH]3)C2)C1` [compound 573] it was 904 nM; in that of `O=C(N1CC2(CCC(Cc3ccc(C(F)(F)F)cn3)CC2)C1)N1CC2(CC(c3nc(C4CC(F)(F)C4)n[nH]3)C2)C1` [compound 574], 65.4 nM.
`N=S(=O)(c1cccc(OC(F)(F)F)c1)C1CC2(C1)CN(C(=O)N1CC3(CC(c4nnc(C5CC5)[nH]4)C3)C1)C2` (stereo not drawn) [compound 575]: half-maximal inhibition (IC50) was put at 4.02 nM.
In turn, `O=C(N1CC(C23CC(NCC4(C(F)(F)F)CC4)(C2)C3)C1)N1CC2(CC(c3nc(C4(F)CC4)n[nH]3)C2)C1` [compound 578] showed an IC50 of 0.51 nM.
In the case of `N#Cc1cc(CC2CC3(C2)CN(C(=O)N2CC4(CC(c5nc(C6CC(F)(F)C6)n[nH]5)C4)C2)C3)cc(C(F)(F)F)c1` [compound 579] it was 24 nM; in that of `Cn1ncc(CN2CC3(C2)CN(C(=O)N2CC4(CC(c5nc(C6CC6)n[nH]5)C4)C2)C3)c1S(N)(=O)=O` [compound 580], 679 nM; in that of `CC(C)(C)Cc1nnc(C23CC(C4CN(C(=O)N5CC6(CC(c7nc(C8CC8)n[nH]7)C6)C5)C4)(C2)C3)s1` [compound 581], 2.22 nM.
In the case of `CS(=O)(=O)c1ccc(CC2CC3(C2)CN(C(=O)N2CC4(CC(c5nc(C6CC(F)(F)C6)n[nH]5)C4)C2)C3)cc1` [compound 582] it was 167 nM; in that of `CC(C)(C)Cc1nnc(C23CC(C4CN(C(=O)N5CC6(CC(c7nc(C8CC(F)(F)C8)n[nH]7)C6)C5)C4)(C2)C3)s1` [compound 583], 295 nM.
Turning to `O=C(N1CC2(CC(c3nc(C4CC4)n[nH]3)C2)C1)N1CC2(CN(Cc3ccc(C(F)(F)F)cc3F)C2)C1` [compound 584], it took 0.48 nM to reach half-maximal inhibition (IC50).
With `N#Cc1cc(CC2CC3(C2)CN(C(=O)N2CC4(CC(c5nc(C6(F)CC6)n[nH]5)C4)C2)C3)ccc1C(F)(F)F` [compound 585] the figure was 0.06 nM; with `O=C(N1CC2(CC(Cc3ccc(F)cc3F)C2)C1)N1CC2(CC(c3nc(C4CC(F)(F)C4)n[nH]3)C2)C1` [compound 586], 5.47 nM; with `Cc1cc(C2CC2)n(C23CC(C4CN(C(=O)N5CC6(CC(c7nc(C8CC8)n[nH]7)C6)C5)C4)(C2)C3)n1` [compound 587], 2.4 nM.
Molecule `Cc1cc(C2CC2)n(C23CC(C4CN(C(=O)N5CC6(CC(c7nc(C8(O)CC8)n[nH]7)C6)C5)C4)(C2)C3)n1` [compound 588] had an IC50 of 40.4 nM.
Consider `O=C(N1CC2(CC(Cc3cc(C(F)(F)F)n[nH]3)C2)C1)N1CC2(CC(c3nc(C4(O)CC4)n[nH]3)C2)C1` [compound 589], for which the IC50 is 0.59 nM.
In the case of `N#Cc1ccc(CC2CC3(C2)CN(C(=O)N2CC4(CC(c5nc(C6CC6)n[nH]5)C4)C2)C3)cc1C(F)(F)F` [compound 590] it was 0.34 nM; in that of `CC(C)(C)c1conc1CN1CC2(C1)CN(C(=O)N1CC3(CC(c4nc(C5CC5)n[nH]4)C3)C1)C2` [compound 591], 3.64 nM.
In the case of `Cn1ncc(OC2CC3(C2)CN(C(=O)N2CC4(CC(c5nc(C6CC6)n[nH]5)C4)C2)C3)c1C(F)(F)F` [compound 592] it was 1.38 nM.
